Measured values: publication PMC9221290, “Alkaloids of Dicranostigma franchetianum (Papaveraceae) and Berberine Derivatives as a New Class of Antimycobacterial Agents” (Biomolecules, 2022)
≈ marks a conversion by molar mass, not a printed value. Like-named read-outs stand apart in the source and are kept apart here.

Columns and labels:
[1] = test system: Mycolicibacterium aurum DSM 43999 (ATCC 23366); experiment: Antimycobacterial microdilution broth assay (resazurin), M. aurum; format: cell-based; settings: 72 h; for MIC: Mycolicibacterium aurum, read-out: MIC M. aurum, microdilution broth, resazurin, 72 h; for MIC M. aurum: microdilution broth, resazurin
[2] = test system: Mtb H37Ra ITM-M006710 (ATCC 9431); experiment: Antimycobacterial microdilution broth assay (resazurin), Mtb H37Ra; format: cell-based, Mycobacterium tuberculosis
[3] = test system: Mycobacterium kansasii DSM 44162 (ATCC 12478); experiment: Antimycobacterial microdilution broth assay (resazurin), M. kansasii; format: cell-based; settings: 96 h; for MIC: Mycobacterium kansasii, read-out: MIC M. kansasii, microdilution broth, resazurin, 96 h
[4] = test system: Mycobacterium avium DSM 44156 (ATCC 25291); experiment: Antimycobacterial microdilution broth assay (resazurin), M. avium; format: cell-based; settings: 96 h; for MIC: Mycobacterium avium, read-out: MIC M. avium, microdilution broth, resazurin, 96 h; for MIC M. avium: microdilution broth, resazurin
[5] = test system: Mycolicibacterium smegmatis DSM 43465 (ATCC 607); experiment: Antimycobacterial microdilution broth assay (resazurin), M. smegmatis; format: cell-based; settings: 48 h; for MIC: Mycolicibacterium smegmatis, read-out: MIC M. smegmatis, microdilution broth, resazurin, 48 h; for MIC M. smegmatis: microdilution broth, resazurin
HepG2 cells = experiment: cells; settings: Homo sapiens, HepG2, 24 h, read-out: HepG2 IC50, MTT, 24 h incubation
[6] = Mycobacterium tuberculosis, read-out: MIC Mtb H37Ra (µM), calculated from MIC (µg/mL) and MW
[7] = Mycobacterium tuberculosis, 120 h, microdilution broth, resazurin, 120 h, read-out: MIC Mtb H37Ra
[8] = Mycobacterium tuberculosis, calculated from MIC (µg/mL) and MW, read-out: MIC Mtb H37Ra
[9] = microdilution broth, resazurin, 120 h
[10] = Mycobacterium tuberculosis, 120 h, read-out: MIC Mtb H37Ra, microdilution broth, resazurin, 120 h

Compound | MIC [1] [µg/mL] | MIC [3] [µg/mL] | MIC [4] [µg/mL] | MIC [2, 7] [µg/mL] | MIC [2, 8] [µM] | MIC [5] [µg/mL] | other results
CO[C@H]1/C=C/O[C@@]2(C)Oc3c(C)c(O)c4c(O)c(c(/C=N/N5CCN(C)CC5)c(O)c4c3C2=O)NC(=O)/C(C)=C\C=C\[C@H](C)[C@H](O)[C@@H](C)[C@@H](O)[C@@H](C)[C@H](OC(C)=O)[C@@H]1C [rifampicin, reference compound] | 0.39 to 0.78 (≈ 0.474 to 0.948 µM) | – | – | – | – | – | MIC M. aurum [1]: 0.39 µg/mL (≈ 0.474 µM); MIC [2, 6]: 0.0075 µM; MIC Mtb H37Ra ([2]; microdilution broth, resazurin, 120 h, listed as RIF): 0.00156 to 0.0031 µg/mL
COc1ccc2c(c1OC)CN(C)c1c-2ccc2cc3c(cc12)OCO3 [compound 2, dihydrochelerythrine] | 250 (≈ 716 µM) | 250 (≈ 716 µM) | 62.5 (≈ 179 µM) | 250 | 716 | ≥ 500 | –
NNC(=O)c1ccncc1 [isoniazid, reference compound] | – | 3.12 to 6.25 (≈ 22.8 to 45.6 µM) | 500 to 1000 (≈ 3650 to 7290 µM) | 0.125 to 0.25 | 1.82 | 15.6 to 31.2 (≈ 114 to 228 µM) | MIC M. kansasii ([3]; microdilution broth, resazurin): 6.25 µg/mL (≈ 45.6 µM); MIC M. avium [4]: 500 µg/mL (≈ 3650 µM); MIC M. aurum [1]: 3.91 µg/mL (≈ 28.5 µM); MIC M. aurum ([1]; listed as INH): 1.95 to 3.91 µg/mL; MIC Mtb H37Ra [2, 9]: 0.25 µg/mL (≈ 1.82 µM); MIC M. smegmatis [5]: 31.25 µg/mL (≈ 228 µM)
O=C(O)c1cn(C2CC2)c2cc(N3CCNCC3)c(F)cc2c1=O [ciprofloxacin, reference compound] | – | 0.25 (≈ 0.754 µM) | 0.5 (≈ 1.51 µM) | 0.125 to 0.25 | 0.75 | 0.0625 to 0.125 (≈ 0.189 to 0.377 µM) | MIC M. aurum [1]: 0.01562 µg/mL (≈ 0.0471 µM); MIC M. aurum ([1]; listed as CPX): 0.0078 to 0.0156 µg/mL; MIC Mtb H37Ra [2, 9]: 0.25 µg/mL (≈ 0.754 µM); MIC M. smegmatis [5]: 0.0625 µg/mL (≈ 0.189 µM)
COc1cc2c(cc1O)[C@@H]1Cc3ccc(OC)c(O)c3CN1CC2 [compound 15, scoulerine] | 125 (≈ 382 µM) | 15.6 (≈ 47.7 µM) | 250 (≈ 764 µM) | 250 | 764 | 125 (≈ 382 µM) | –
COc1cc2c(cc1OC)C(=O)Cc1ccc3c(c1CN(C)CC2)OCO3 [compound 8, cryptopine] | ≥ 125 | ≥ 125 | ≥ 125 | ≥ 125 | ≥ 339 | ≥ 125 | –
protopine [compound 6] | – | – | – | – | – | – | MIC M. avium [4]: 250 µg/mL; MIC M. aurum [1]: ≥500 µg/mL; MIC ([2]; calculated from MIC (µg/mL) and MW, read-out: MIC Mtb H37Ra): ≥1416 µM; MIC Mtb H37Ra [2, 9]: ≥500 µg/mL; MIC M. smegmatis [5]: ≥500 µg/mL
COc1cc2c(cc1O)[C@@H]1Cc3ccc(OC)c(OC)c3CN1CC2 [compound 13, isocorypalmine] | ≥ 250 | ≥ 250 | ≥ 250 | – | – | ≥ 250 | MIC [2, 10]: ≥ 250 µg/mL; MIC [2, 6]: ≥ 733 µM
COc1cccc2c1C(=O)c1c(O)c3c(c(O)c1C2=O)C[C@@](O)(C(=O)CO)C[C@@H]3O[C@H]1C[C@H](N)[C@H](O)[C@H](C)O1 [doxorubicine, reference compound] | – | – | – | – | – | – | IC50 (HepG2 cells): 30.4 ± 1.74 µM
COc1cc2c3c(c1O)-c1c(ccc(OC)c1OC)C[C@@H]3N(C)CC2 [compound 12, corydine] | 250 (≈ 732 µM) | 250 (≈ 732 µM) | 62.5 (≈ 183 µM) | ≥ 500 | ≥ 1470 | ≥ 500 | –
COc1ccc2c(c1OC)CN(C)CCc1cc3c(cc1C(=O)C2)OCO3 [compound 7, allocryptopine] | ≥ 250 | 250 (≈ 677 µM) | ≥ 250 | ≥ 250 | ≥ 678 | ≥ 250 | –
CN1Cc2c(ccc3c2OCO3)-c2ccc3cc4c(cc3c21)OCO4 [compound 1, dihydrosanguinarine] | ≥ 500 | 125 (≈ 375 µM) | ≥ 500 | ≥ 500 | ≥ 1500 | ≥ 500 | –
COc1ccc2c(c1O)-c1c(OC)c(OC)cc3c1[C@H](C2)N(C)CC3 [compound 10, isocorydine] | ≥ 500 | 125 (≈ 366 µM) | ≥ 500 | ≥ 500 | ≥ 1430 | ≥ 500 | –
COc1cc2c(cc1OC)-c1c(OC)c(OC)cc3c1[C@H](C2)N(C)CC3 [compound 11, glaucine] | 125 (≈ 352 µM) | 62.5 (≈ 176 µM) | 125 (≈ 352 µM) | – | – | ≥ 250 | MIC [2, 10]: 125 µg/mL; MIC [2, 6]: ≥ 352 µM
